Source: patent US20070276025A1, “Indirubin-Type Compounds, Compositions, and Methods for Their Use” (priority 2003, published 2007)

Assays:
[1] = test system: GSK-3α (Tyr276) / GSK-3β (Tyr216); test: Tyrosine phosphorylation of GSK-3 in SH-SY5Y cells (Western blot); assay type: cell-based, human; settings: 1 μM, 12 hr
Description: GSK-3α and GSK-3β activity is enhanced by the phosphorylation of a specific tyrosine residue (Tyr276 and Tyr216, respectively) (Hughes et al. (1993) EMBO J. 12: 803-808; Dajani et al. (2003) EMBO J. 22: 494-501). The tyrosine kinase responsible for this phosphorylation in mammals is unknown, but there is some evidence that it indirectly depends on GSK-3 activity (Bhat et al. (2000) Proc. Natl. Acad. Sci. U.S.A. 97: 11074-11079; Shaw et al. (1997) FEBS Lett. 416: 307-311). […] SH-SY5Y cells were exposed to IO, MeIO, BIO and MeBIO for 12 hr and the phosphorylation of Tyr276 (GSK-3α) and Tyr216 (GSK-3β) was estimated by Western blotting with phospho-specific antibodies. […] This was accompanied by an increased level in total GSK-3β, total β-catenin, and dephospho-&catenin.

[2] = test system: AhR; test: AhR nuclear translocation in Hepa-1 and ARNT mutant cells (immunofluorescence); assay type: cell-based, mouse; settings: 25 μM, 90 min, Hepa-1 wild-type and ARNT mutant cells
[3] = test system: 5L (AhR +/+) hepatoma cells; test: Cell viability MTT assay, 5L cells; assay type: cell-based, mouse; settings: range of concentrations, 24 and 48 hr
[4] = test system: p27^KIP1 in 5L (AhR +/+) cells; test: p27KIP1 expression by Western blotting, 5L cells; assay type: cell-based, mouse
[5] = test system: MAPKK; settings: Table 2, data from Hoessel et al. (1999); cited from earlier work
[6] = biological target: insulin receptor Tyr kinase; settings: Table 2, data from Hoessel et al. (1999); cited from earlier work
[7] = biological target: CDK4/cyclin D1 (Homo sapiens, UniProt P11802); design: made in house; settings: Table 2, data from Hoessel et al. (1999); cited from earlier work
Sequence of CDK4/cyclin D1 (P11802 whole entry, species assumed): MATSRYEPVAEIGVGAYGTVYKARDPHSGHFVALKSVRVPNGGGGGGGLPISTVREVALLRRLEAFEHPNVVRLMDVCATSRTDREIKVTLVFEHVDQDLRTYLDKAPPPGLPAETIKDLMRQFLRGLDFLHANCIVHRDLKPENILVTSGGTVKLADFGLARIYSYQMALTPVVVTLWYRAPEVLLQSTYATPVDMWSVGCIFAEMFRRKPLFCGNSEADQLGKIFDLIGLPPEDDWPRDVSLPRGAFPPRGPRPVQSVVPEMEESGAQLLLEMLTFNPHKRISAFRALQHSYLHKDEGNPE
Sequence of CDK4/cyclin D1 (P24385 whole entry partner, species assumed): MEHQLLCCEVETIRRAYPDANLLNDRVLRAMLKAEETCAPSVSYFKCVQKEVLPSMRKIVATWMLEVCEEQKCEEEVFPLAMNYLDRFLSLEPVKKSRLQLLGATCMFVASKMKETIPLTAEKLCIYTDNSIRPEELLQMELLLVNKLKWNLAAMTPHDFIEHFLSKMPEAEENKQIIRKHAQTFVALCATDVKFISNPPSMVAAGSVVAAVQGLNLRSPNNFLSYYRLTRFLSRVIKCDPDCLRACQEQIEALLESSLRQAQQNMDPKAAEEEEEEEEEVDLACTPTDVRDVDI

[8] = biological target: erk1 (Homo sapiens, UniProt P27361); design: made in house; settings: Table 2, data from Hoessel et al. (1999); cited from earlier work
Sequence of erk1 (P27361 whole entry, species assumed): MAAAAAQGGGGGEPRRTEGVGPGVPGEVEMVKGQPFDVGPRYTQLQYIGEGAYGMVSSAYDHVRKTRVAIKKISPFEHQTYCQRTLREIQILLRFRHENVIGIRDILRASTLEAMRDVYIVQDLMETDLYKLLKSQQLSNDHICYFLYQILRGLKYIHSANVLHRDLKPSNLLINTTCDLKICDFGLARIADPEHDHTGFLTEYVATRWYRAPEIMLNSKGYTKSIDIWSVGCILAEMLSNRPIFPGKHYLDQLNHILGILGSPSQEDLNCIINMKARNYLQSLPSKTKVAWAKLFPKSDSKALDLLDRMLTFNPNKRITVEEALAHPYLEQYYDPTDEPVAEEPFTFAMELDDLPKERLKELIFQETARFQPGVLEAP

[9] = biological target: erk2 (Homo sapiens, UniProt P28482); design: made in house; settings: Table 2, data from Hoessel et al. (1999); cited from earlier work
Sequence of erk2 (P28482 whole entry, species assumed): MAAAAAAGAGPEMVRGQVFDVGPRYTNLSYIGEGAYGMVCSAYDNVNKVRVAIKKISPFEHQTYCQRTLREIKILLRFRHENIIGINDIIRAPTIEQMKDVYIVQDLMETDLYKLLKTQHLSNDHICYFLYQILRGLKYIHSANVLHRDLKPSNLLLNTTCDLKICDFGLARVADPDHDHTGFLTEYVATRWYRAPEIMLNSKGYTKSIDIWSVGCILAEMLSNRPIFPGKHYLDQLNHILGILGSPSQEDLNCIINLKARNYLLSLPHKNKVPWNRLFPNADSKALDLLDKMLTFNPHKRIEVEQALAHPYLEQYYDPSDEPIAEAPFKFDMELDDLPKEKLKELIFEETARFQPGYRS

[10] = biological target: protein kinase C γ (Homo sapiens, UniProt P05129); design: made in house; settings: Table 2, data from Hoessel et al. (1999); cited from earlier work
[11] = biological target: protein kinase C δ (Homo sapiens, UniProt Q05655); design: made in house; settings: Table 2, data from Hoessel et al. (1999); cited from earlier work
Sequence of protein kinase C δ (Q05655 whole entry): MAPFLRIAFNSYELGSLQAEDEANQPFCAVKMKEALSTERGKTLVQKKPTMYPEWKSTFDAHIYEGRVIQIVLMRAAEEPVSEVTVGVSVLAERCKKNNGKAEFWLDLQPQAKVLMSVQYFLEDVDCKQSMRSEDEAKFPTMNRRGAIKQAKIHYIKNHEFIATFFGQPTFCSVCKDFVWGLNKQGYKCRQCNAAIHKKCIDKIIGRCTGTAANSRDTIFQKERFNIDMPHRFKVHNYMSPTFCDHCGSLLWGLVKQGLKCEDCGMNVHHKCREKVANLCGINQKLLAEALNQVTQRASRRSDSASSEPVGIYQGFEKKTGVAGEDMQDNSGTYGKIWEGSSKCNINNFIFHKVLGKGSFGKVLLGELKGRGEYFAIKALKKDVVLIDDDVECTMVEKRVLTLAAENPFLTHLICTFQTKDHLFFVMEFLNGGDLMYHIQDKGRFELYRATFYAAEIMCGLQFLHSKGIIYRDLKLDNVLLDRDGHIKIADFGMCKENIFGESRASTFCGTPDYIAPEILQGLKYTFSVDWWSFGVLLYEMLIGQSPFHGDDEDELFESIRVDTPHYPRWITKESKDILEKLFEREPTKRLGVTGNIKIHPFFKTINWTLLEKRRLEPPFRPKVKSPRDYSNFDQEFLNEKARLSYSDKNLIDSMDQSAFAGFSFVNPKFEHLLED

[12] = biological target: T1, protein kinase C ε (Homo sapiens, UniProt Q02156); design: made in house; settings: Table 2, data from Hoessel et al. (1999); cited from earlier work
T1 sequence (Q02156 1-737): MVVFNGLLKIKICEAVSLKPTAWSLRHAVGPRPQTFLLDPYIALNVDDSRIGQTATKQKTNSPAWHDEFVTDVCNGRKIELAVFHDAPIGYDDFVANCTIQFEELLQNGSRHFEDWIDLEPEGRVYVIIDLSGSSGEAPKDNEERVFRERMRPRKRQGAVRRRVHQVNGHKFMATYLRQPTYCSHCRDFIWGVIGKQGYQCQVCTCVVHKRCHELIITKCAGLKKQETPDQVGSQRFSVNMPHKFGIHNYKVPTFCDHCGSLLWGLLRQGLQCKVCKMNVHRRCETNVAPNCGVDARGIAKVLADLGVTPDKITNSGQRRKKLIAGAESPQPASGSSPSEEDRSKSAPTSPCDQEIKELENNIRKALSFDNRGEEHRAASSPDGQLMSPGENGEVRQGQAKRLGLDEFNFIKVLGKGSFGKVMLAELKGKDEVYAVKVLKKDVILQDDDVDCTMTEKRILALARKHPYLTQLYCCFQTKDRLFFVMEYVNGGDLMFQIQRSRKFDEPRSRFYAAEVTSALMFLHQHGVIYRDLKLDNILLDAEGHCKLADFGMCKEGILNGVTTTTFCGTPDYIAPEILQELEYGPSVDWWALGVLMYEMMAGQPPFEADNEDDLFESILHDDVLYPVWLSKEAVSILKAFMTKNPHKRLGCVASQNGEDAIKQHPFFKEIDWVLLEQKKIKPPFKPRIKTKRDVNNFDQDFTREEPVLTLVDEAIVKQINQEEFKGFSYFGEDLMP

[13] = biological target: protein kinase C η (Homo sapiens, UniProt P24723); design: made in house; settings: Table 2, data from Hoessel et al. (1999); cited from earlier work
Sequence of protein kinase C η (P24723 whole entry): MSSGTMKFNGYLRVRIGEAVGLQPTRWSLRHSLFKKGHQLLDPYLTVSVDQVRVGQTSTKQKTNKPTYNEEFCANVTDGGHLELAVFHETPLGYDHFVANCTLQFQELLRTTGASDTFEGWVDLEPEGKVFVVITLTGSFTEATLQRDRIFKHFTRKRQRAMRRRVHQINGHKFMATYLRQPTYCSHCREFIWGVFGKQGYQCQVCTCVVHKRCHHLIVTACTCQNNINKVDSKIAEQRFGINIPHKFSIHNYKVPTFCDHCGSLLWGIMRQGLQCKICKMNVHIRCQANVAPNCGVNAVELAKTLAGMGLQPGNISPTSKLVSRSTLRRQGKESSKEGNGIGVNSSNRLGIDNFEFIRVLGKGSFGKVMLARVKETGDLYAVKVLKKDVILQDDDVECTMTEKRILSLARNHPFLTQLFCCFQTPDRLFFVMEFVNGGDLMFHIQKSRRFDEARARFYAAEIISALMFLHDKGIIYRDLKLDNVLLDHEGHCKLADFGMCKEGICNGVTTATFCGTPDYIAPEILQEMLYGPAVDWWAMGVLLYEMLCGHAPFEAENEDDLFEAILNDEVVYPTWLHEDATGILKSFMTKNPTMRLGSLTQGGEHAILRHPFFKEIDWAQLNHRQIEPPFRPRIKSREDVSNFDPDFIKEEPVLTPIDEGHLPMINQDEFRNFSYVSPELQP

[14] = test system: GSK-3; test: β-catenin phosphorylation on GSK-3 specific sites in COS-1 cells (Western blot); settings: 5 μM indirubins or 20 mM LiCl, 24 hrs
[15] = biological target: AhR (Homo sapiens, UniProt P35869)
Sequence of AhR (Homo sapiens, UniProt P35869) (P35869 11-848): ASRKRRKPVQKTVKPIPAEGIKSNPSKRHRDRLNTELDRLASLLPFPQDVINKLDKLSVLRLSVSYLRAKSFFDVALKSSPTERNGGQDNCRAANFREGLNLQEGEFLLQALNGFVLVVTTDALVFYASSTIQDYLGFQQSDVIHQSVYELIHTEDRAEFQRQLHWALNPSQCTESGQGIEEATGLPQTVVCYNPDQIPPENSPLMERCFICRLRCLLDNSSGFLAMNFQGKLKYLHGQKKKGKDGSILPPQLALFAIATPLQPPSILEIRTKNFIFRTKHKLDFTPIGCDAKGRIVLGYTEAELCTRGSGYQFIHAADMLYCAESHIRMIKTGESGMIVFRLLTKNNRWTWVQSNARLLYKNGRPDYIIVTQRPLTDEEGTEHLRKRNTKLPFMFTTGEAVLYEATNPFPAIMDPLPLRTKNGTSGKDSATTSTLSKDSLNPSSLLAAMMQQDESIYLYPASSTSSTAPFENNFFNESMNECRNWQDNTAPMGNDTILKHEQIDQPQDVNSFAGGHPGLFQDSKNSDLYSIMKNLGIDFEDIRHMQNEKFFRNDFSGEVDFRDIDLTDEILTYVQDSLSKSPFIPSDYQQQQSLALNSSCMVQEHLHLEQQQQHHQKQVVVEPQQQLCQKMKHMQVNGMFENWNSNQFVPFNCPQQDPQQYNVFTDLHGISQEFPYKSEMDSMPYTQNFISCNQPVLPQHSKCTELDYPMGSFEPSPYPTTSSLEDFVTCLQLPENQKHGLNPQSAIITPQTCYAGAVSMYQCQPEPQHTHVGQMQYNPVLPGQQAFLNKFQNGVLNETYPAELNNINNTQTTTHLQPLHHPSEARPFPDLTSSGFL
Sequence of AhR (Homo sapiens, UniProt P35869) (P27540 whole entry partner): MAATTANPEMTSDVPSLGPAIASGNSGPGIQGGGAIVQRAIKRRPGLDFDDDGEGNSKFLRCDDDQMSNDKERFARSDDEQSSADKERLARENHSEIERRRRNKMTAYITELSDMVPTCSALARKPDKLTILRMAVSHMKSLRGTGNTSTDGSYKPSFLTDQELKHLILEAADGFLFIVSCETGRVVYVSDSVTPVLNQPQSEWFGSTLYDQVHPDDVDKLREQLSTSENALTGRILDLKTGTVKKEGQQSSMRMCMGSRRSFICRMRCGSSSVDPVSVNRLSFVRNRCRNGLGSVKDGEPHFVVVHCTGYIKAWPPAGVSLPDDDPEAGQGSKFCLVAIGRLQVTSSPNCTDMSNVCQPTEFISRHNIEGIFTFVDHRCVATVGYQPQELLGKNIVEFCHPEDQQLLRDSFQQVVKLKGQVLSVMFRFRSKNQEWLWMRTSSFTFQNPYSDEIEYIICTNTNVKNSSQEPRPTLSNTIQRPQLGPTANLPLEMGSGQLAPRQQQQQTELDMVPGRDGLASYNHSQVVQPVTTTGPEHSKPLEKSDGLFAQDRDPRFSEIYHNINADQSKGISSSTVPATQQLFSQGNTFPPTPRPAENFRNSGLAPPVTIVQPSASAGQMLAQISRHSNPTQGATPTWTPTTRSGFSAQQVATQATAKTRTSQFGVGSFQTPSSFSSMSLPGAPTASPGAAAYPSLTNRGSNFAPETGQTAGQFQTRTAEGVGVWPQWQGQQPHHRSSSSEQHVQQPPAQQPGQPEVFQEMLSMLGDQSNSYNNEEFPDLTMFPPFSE

| SMILES | level of tyrosine phosphorylation of both GSK-3 isoforms [1] | nuclear translocation of AhR [2] | survival of 5L cells (MTT) [3] | p27^KIP1 expression in 5L cells [4] | IC50 [5] [µM] | IC50 [6] [µM] | IC50 [7] [µM] | IC50 [8] [µM] | IC50 [9] [µM] | IC50 [10] [µM] | IC50 [11] [µM] | IC50 [12] [µM] | IC50 [13] [µM] | unphosphorylated β-catenin level [14] | EC50 [15] [µM] |
| --- | --- | --- | --- | --- | --- | --- | --- | --- | --- | --- | --- | --- | --- | --- | --- |
| O=C1Nc2ccccc2/C1=C1/Nc2ccccc2/C1=N\O [7h, indirubin-3′-oxime] | dramatically reduced | AhR rapidly localized to the nucleus | equally sensitive to IO and BIO | modest, but detectable increase | > 100 | 11 | 3.33 | > 100 | > 100 | 8.4 | > 100 | 20 | 52 | neither the kinase-inactive MeBIO nor IO, led to a major increase | – |
| CC(=O)ON=C1C(=C2C(=O)Nc3cc(Br)ccc32)Nc2ccccc21 [8a, 6-Bromoindirubin-3′-acetoxime] | – | – | – | – | – | – | – | – | – | – | – | – | – | – | ≥ 0.1 |
